The results in this text go back to paper PMC7751175, “Lateral Gene Transfer Acts As an Evolutionary Shortcut to Efficient C4 Biochemistry” (Molecular Biology and Evolution, 2020).

The Km is the concentration of substrate that gives half-maximal velocity.

Assay in all cases: malate dehydrogenase-coupled NADH oxidation at […] nm; nonlinear regression
Details in all cases: co-substrate bicarbonate, 5 mM MgCl2, 50 mM Tris-HCl pH 7.4, 25 °C; read-out: KM(PEP)

In experiment [1] the test system is isoform 10, Donor_A ppc-1P3_A PEPC. Format: biochemical, Themeda triandra.
Experiment [2] has as its system isoform 2, native co-opted ppc-1P6 PEPC (TPE1-10). Format: biochemical, Alloteropsis semialata.
In experiment [3] the test system is isoform 7, Donor_M ppc-1P3_M PEPC. Format: biochemical, Megathyrsus maximus.
The test system of experiment [4] is isoform 1, non-C4 ppc-1P6 PEPC (RSA5-03). Format: biochemical, Alloteropsis semialata.
Experiment [5] concerns isoform 12, Donor_C ppc-1P3_C PEPC. It counts as biochemical, Setaria barbata.
Experiment [6] has as its system isoform 6, native co-opted ppc-1P3 PEPC (AANG4-8). It counts as biochemical, Alloteropsis angusta.
Experiment [7] relates to isoform 8, ppc-1P3_LGT:M PEPC (A. cimicina). It counts as biochemical, Alloteropsis cimicina.
Experiment [8] relates to isoform 11, ppc-1P3_LGT:A PEPC (AUS1-01). Format: biochemical, Alloteropsis semialata.
Experiment [9] relates to isoform 5, native co-opted ppc-1P3 PEPC (MAD1-03). Format: biochemical, Alloteropsis semialata.

With `C=C(OP(=O)(O)O)C(=O)O` [PEP], the Km came out at 687 ± 72.8 µM in experiment [1]; 196 ± 12.9 µM in experiment [2]; 921 ± 99.1 µM in experiment [3]; 319 ± 33.5 µM in [4]; 612 ± 55.9 µM in [5]; 324 ± 23.3 µM in experiment [6]. Besides, the Michaelis constant (Km) came out at 710 ± 47.2 µM in experiment [7], 699 ± 50.4 µM in experiment [8] and 188 ± 12.5 µM in experiment [9].
